Where “and” joins values, the source holds several entries; their conditions need not be identical. Identical values can stand only once. Like-named read-outs stand apart in the source and are kept apart here.
How the values were obtained:
SARS-CoV-2 [1] = test: microbe, parasite or virus in culture; assay type: cell-based; details: for reduction of viral particle numbers: up to; for viral particle/μL: 48 h post infection, median
[2] = test system: reconstituted human nasal tissue (MucilAir); details: without virus infection
SARS-CoV-2 B.1.1.7 = test: microbe, parasite or virus in culture; assay type: cell-based; details: Severe acute respiratory syndrome coronavirus 2, Vero/TMPRSS2, 48 h, B1.1.7, 48 h, read-out: inhibition of infection (relative to no azelastine treated cells)
SARS-CoV-2 B.1.351 = test: microbe, parasite or virus in culture; assay type: cell-based; details: Severe acute respiratory syndrome coronavirus 2, Vero/TMPRSS2, 48 h, read-out: inhibition of infection (relative to no azelastine treated cells)
SARS-CoV-2 [3] = assay type: cell-based; details: for cytopathogenic score: Vero E6, MOI 0.1, 48 hours post infection
influenza H1N1 = assay type: cell-based, influenza A virus H1N1; details: hydrochloride
SARS-CoV-2 [4] = assay type: cell-based; details: Calu-3, MOI 0.01, 48 h
RSV Long strain [5] = assay type: cell-based, Respiratory Syncytial Virus; details: all 3 settings (preventive, co-administration, therapeutic), 48 h
RSV Long strain [6] = assay type: cell-based, Respiratory Syncytial Virus; details: 6.4 μM
HEp-2 cells = test: Cytotoxicity towards HEp-2 cells, flow cytometry with propidium iodide; assay type: cell-based; details: non-infected, 48 h
Protocol: Mean and SEM were calculated from 3 independent experiments.

Compound: CN1CCCC(n2nc(Cc3ccc(Cl)cc3)c3ccccc3c2=O)CC1 (stereo not shown) [Azelastine, 4-[(4-chlorophenyl)methyl]-2-(1-methylazepan-4-yl)phthalazin-1-one]
- EC50 (SARS-CoV-2 [1]; Severe acute respiratory syndrome coronavirus 2, Vero C1008, wild-type SARS-CoV-2, read-out: EC50 observed for the wild-type virus): ~6 µM
- reduction of viral particle numbers (SARS-CoV-2 [1]; co-administration (simulating prevention)): > 99%
- viral particle/μL (SARS-CoV-2 [1]; co-administration, 3.125 μM): 98.4 viral particle/μL
- viral particle/μL (SARS-CoV-2 [1]; co-administration, 6.25 μM): 15.45 viral particle/μL
- viral particle/μL (SARS-CoV-2 [1]; co-administration, 12.5 μM): 12.25 viral particle/μL
- viral particle/μL (SARS-CoV-2 [1]; co-administration, 25 μM): 0.2 viral particle/μL
- viral particle/μL (SARS-CoV-2 [1]; post-infection administration, 3.125 μM): 138 viral particle/μL
- viral particle/μL (SARS-CoV-2 [1]; post-infection administration, 6.25 μM): 68.4 viral particle/μL
- viral particle/μL (SARS-CoV-2 [1]; post-infection administration, 12.5 μM): 52 viral particle/μL
- viral particle/μL (SARS-CoV-2 [1]; post-infection administration, 25 μM): 6.865 viral particle/μL
- reduction of viral particle numbers (SARS-CoV-2 [1]; post-infection administration): > 97%
- tissue morphology versus control [2]: No difference in tissue morphology
- inhibition at 3.125 µM (SARS-CoV-2 B.1.1.7; preventive setting): 23.8%
- inhibition at 6.25 µM (SARS-CoV-2 B.1.1.7; preventive setting): 72.8%
- inhibition at 12.5 µM (SARS-CoV-2 B.1.1.7; preventive setting): 98.8%
- inhibition at 3.125 µM (SARS-CoV-2 B.1.1.7; therapeutic setting): 2.57%
- inhibition at 6.25 µM (SARS-CoV-2 B.1.1.7; therapeutic setting): 47.4%
- inhibition at 12.5 µM (SARS-CoV-2 B.1.1.7; therapeutic setting): 91.7%
- inhibition at 3.125 µM (SARS-CoV-2 B.1.351; preventive setting): 32.9%
- inhibition at 6.25 µM (SARS-CoV-2 B.1.351; preventive setting): 74.9%
- inhibition at 12.5 µM (SARS-CoV-2 B.1.351; preventive setting): 99.1%
- inhibition at 3.125 µM (SARS-CoV-2 B.1.351; therapeutic setting): 22%
- inhibition at 6.25 µM (SARS-CoV-2 B.1.351; therapeutic setting): 55%
- inhibition at 12.5 µM (SARS-CoV-2 B.1.351; therapeutic setting): 97.6%

Compound: Maraviroc
- cytopathogenic score (SARS-CoV-2 [3]; 3.125 μM): 4
- cytopathogenic score (SARS-CoV-2 [3]; 6.25 μM): 4
- cytopathogenic score (SARS-CoV-2 [3]; 12.5 μM): 3
- cytopathogenic score (SARS-CoV-2 [3]; 25 μM): 3
- cytopathogenic score (SARS-CoV-2 [3]; 50 μM): 3
- protective effect (SARS-CoV-2 [3]; higher concentrations (12.5 to 50 μM)): only marginal protective effect
- protective effect (SARS-CoV-2 [3]; lower concentrations): not effective at all

Compound: CN1CCCC(n2nc(Cc3ccc(Cl)cc3)c3ccccc3c2=O)CC1.Cl (stereo not shown) [Azelastine-HCl, 4-[(4-chlorophenyl)methyl]-2-(1-methylazepan-4-yl)phthalazin-1-one; hydrochloride]
- reduction in viral genome copy (influenza H1N1): 98.74% and 87.4%
- cytopathogenic score (SARS-CoV-2 [3]; 3.125 μM): 2
- cytopathogenic score (SARS-CoV-2 [3]; 6.25 μM): 2
- reduction of viral particle numbers (SARS-CoV-2 [4]; 25 μM): over 90%
- reduction of viral particle numbers (SARS-CoV-2 [4]; 50 μM, up to): > 99%
- RSV infection of cells by spot count, compared to vehicle (DMSO) treated controls (RSV Long strain [5]; 3.2 μM): ~50%
- RSV infection of cells by spot count, compared to vehicle (DMSO) treated controls (RSV Long strain [5]; 6.4 μM): ~50%
- Ct (cycle threshold in PCR reaction) (RSV Long strain [6]; co-administration, experiment #1): 27.99
- Ct (cycle threshold in PCR reaction) (RSV Long strain [6]; co-administration, experiment #2): 27.21
- Ct (cycle threshold in PCR reaction) (RSV Long strain [6]; preventive, experiment #1): 27.5
- Ct (cycle threshold in PCR reaction) (RSV Long strain [6]; preventive, experiment #2): 27.17
- Ct (cycle threshold in PCR reaction) (RSV Long strain [6]; therapeutic, experiment #1): 27.95
- Ct (cycle threshold in PCR reaction) (RSV Long strain [6]; therapeutic, experiment #2): 27.27
- cytotoxicity to HEp-2 cells (HEp-2 cells; 12.8 μM): showed cytotoxicity
- cytotoxicity to HEp-2 cells (HEp-2 cells; 25.6 μM): showed cytotoxicity
